Values of other authors in patent US20140271893A1 (McNeil-PPC, Inc., priority 2013, published 2014).

Key:
[1] = therapeutic dose
[2] = 30 mg dose administered orally over eight hours

fraction of dose excreted unchanged in the urine [1] | metabolized to m-hydroxy-phenylglycol-sulfate, % of the dose [2] | metabolized to m-hydroxymandelic acid, % of the dose [2] | metabolized to phenylephrine-glucuronide, % of the dose [2] | metabolized to phenylephrine-sulfate, % of the dose [2] | SMILES
Less than 9% |  |  |  |  | CC(=O)Nc1ccc(O)cc1 [acetaminophen]
 | 6% | 30% | 12% | 47% | CNC[C@H](O)c1cccc(O)c1 [phenylephrine, (R)-1-(3-hydroxyphenyl)-2-methylaminoethanol]
